For 25 molecules, IC50 results are on record in patent US12509444B2, “Compounds and methods for CD73 modulation and indications therefor” (Plexxikon Inc., priority 2019, dated 2025).

The structures appear in SMILES notation.

In experiment [1] the target is T1, Human CD73 (amino acid residues 27-549) (Homo sapiens, UniProt P21589).
T1 construct: Human CD73 (amino acid residues 27-549); His tag (N); made in house; host or cells: E. coli
T1 sequence (P21589 27-549): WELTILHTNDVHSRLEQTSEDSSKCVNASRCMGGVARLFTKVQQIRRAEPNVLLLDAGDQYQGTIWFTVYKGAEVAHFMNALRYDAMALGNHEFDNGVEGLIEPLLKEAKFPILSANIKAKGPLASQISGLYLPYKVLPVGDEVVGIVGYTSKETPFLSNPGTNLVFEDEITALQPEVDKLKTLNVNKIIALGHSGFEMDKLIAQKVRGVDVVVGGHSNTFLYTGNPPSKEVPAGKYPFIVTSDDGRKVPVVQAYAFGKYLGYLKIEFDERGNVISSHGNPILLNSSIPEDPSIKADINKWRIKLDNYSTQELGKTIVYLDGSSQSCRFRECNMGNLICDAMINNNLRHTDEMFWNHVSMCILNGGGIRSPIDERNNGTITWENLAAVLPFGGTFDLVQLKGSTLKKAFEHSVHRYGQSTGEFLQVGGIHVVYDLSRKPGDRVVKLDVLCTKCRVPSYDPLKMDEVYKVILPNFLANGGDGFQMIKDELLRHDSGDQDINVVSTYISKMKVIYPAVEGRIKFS
Put plainly: CD73 enzymatic assay (luciferase-based indirect assay, CellTiter-Glo). It is filed as biochemical. Conditions: 0.4 nM CD73, 150 μM AMP, 1 hour at room temperature. Put shortly:
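Residual AMP inhibits luciferase, so luminescence reports CD73 turnover; read with CellTiter-Glo 2.0 plus 1 μM final ATP, 30 min. Reaction used 0.4 nM N-His CD73 (27-549, E. coli), 150 μM AMP, HEPES pH 7.4 with Tween 20, 1 h at room temperature. IC50 fitted by nonlinear regression.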

In the next experiment the target is T2, human CD73 (Homo sapiens, UniProt P21589).
T2 construct: expressed in transfected cells
T2 sequence (P21589 27-549): T1 sequence (P21589 27-549)
In words: Inhibitor activity against CD73 in cell based assay (CD73 expressing CHO-K1 cells). Conditions: CHO-K1 cells expressing human CD73, 150 μM AMP, 4 hours of incubation; read-out: CHO-K1 CELL VARIANT: CD73 IC50. Put shortly: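 Residual supernatant AMP was quantified via CellTiter-Glo luminescence (1 μM ATP added, 30 min, room temperature) after a 4 h exposure of human CD73-expressing CHO-K1 cells to 150 μM AMP plus compound, top final 10 μM, 8 points. IC50 came from nonlinear regression of percent inhibition.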

Take `O=C(N[C@@H]1CCN(C(=O)c2ccccc2)C1)O[C@@H]1CCN(c2cn[nH]c(=O)c2Cl)C1` [P-0359, (R)-1-(5-chloro-6-oxo-1,6-dihydropyridazin-4-yl)pyrrolidin-3-yl ((R)-1-benzoylpyrrolidin-3-yl)carbamate]: the IC50 (in experiment [1]; on human CD73) was 0.001 to 10 µM in each case.

Consider `O=C(NC1(C(F)(F)F)CCCC1)O[C@@H]1CCN(c2cn[nH]c(=O)c2Cl)C1` [P-0360, (R)-1-(5-chloro-6-oxo-1,6-dihydropyridazin-4-yl)pyrrolidin-3-yl (1-(trifluoromethyl)cyclopentyl) carbamate], for which the 50% inhibitory concentration (IC50) (in experiment [1]; at human CD73) was 0.001 to 10 µM in each case.

Take `N#CC1(NC(=O)O[C@@H]2CCN(c3cn[nH]c(=O)c3Cl)C2)CCCC1` [P-0361, (R)-1-(5-chloro-6-oxo-1,6-dihydropyridazin-4-yl)pyrrolidin-3-yl (1-cyanocyclopentyl)carbamate]: the 50% inhibitory concentration (IC50) (in experiment [1]; at human CD73) was 0.001 to 10 µM each time.

`O=C(NC1(c2ccc(F)cc2)CC1)O[C@@H]1CCN(c2cn[nH]c(=O)c2Cl)C1` [P-0362, (R)-1-(5-chloro-6-oxo-1,6-dihydropyridazin-4-yl)pyrrolidin-3-yl (1-(4-fluorophenyl)cyclopropyl) carbamate]: the IC50 (in experiment [1]; at human CD73) was 0.001 to 10 µM each time.

As for `C=Cc1c(N2CC[C@@H](OC(=O)NC3CCCC3)C2)cn[nH]c1=O` [P-0363, (R)-1-(6-oxo-5-vinyl-1,6-dihydropyridazin-4-yl)pyrrolidin-3-yl cyclopentylcarbamate], the IC50 (in experiment [1]; on human CD73) was 0.001 to 10 µM each time.

Take `O=C(N[C@H]1CC[C@H](NC(=O)c2ccccc2)C1)O[C@@H]1CCN(c2cn[nH]c(=O)c2Cl)C1` [P-0364, (R)-1-(5-chloro-6-oxo-1,6-dihydropyridazin-4-yl)pyrrolidin-3-yl ((1S,3S)-3-benzamidocyclopentyl) carbamate]: the IC50 (in experiment [1]; on human CD73) was 0.001 to 10 µM in each case.

In the case of `O=C(N[C@H]1CC[C@H](NS(=O)(=O)c2ccccc2F)C1)O[C@@H]1CCN(c2cn[nH]c(=O)c2Cl)C1` [P-0365, (R)-1-(5-chloro-6-oxo-1,6-dihydropyridazin-4-yl)pyrrolidin-3-yl ((1S,3S)-3-((2-fluorophenyl)sulfonamido)cyclopentyl)carbamate], the half-inhibitory concentration (IC50) (in experiment [1]; at human CD73) was 0.001 to 10 µM in each case.

Turning to `COc1ccc(S(=O)(=O)C[C@H]2CC[C@H](NC(=O)O[C@@H]3CCN(c4cn[nH]c(=O)c4Cl)C3)CC2)cc1` [P-0366, (R)-1-(5-chloro-6-oxo-1,6-dihydropyridazin-4-yl)pyrrolidin-3-yl ((1r,4R)-4-(((4-methoxyphenyl)sulfonyl)methyl)cyclohexyl)carbamate], the IC50 (in experiment [1]; on human CD73) was 0.001 to 10 µM in each case.

Regarding `O=C(N[C@@H]1CC[C@H]1C(F)(F)F)O[C@@H]1CCN(c2cn[nH]c(=O)c2Cl)C1` [P-0367, (R)-1-(5-chloro-6-oxo-1,6-dihydropyridazin-4-yl)pyrrolidin-3-yl ((1R,2R)-2-(trifluoromethyl)cyclobutyl) carbamate], the IC50 (in experiment [1]; at human CD73) was 0.001 to 10 µM each time.

As for `O=C(N[C@H]1C[C@@](O)(C(F)(F)F)C1)O[C@@H]1CCN(c2cn[nH]c(=O)c2Cl)C1` [P-0368, (R)-1-(5-chloro-6-oxo-1,6-dihydropyridazin-4-yl)pyrrolidin-3-yl ((1r,3r)-3-hydroxy-3-(trifluoromethyl)cyclobutyl)carbamate], the IC50 (in experiment [1]; on human CD73) was 0.001 to 10 µM in each case.

For the molecule `O=C(NC1CCN(C(=O)c2ccccc2)CC1)O[C@@H]1CCN(c2cn[nH]c(=O)c2Cl)C1` [P-0369, (R)-1-(5-chloro-6-oxo-1,6-dihydropyridazin-4-yl)pyrrolidin-3-yl (1-benzoylpiperidin-4-yl)carbamate], the concentration for half-maximal inhibition (IC50) (in experiment [1]; at human CD73) was 0.001 to 10 µM in each case.

For `O=C(NC1CCN(C(=O)C2CCC2)CC1)O[C@@H]1CCN(c2cn[nH]c(=O)c2Cl)C1` [P-0370, (R)-1-(5-chloro-6-oxo-1,6-dihydropyridazin-4-yl)pyrrolidin-3-yl (1-(cyclobutanecarbonyl)piperidin-4-yl)carbamate], the 50% inhibitory concentration (IC50) (in experiment [1]; on human CD73) was 0.001 to 10 µM throughout.

For the molecule `O=C(NC1CCN(C(=O)c2ccno2)CC1)O[C@@H]1CCN(c2cn[nH]c(=O)c2Cl)C1` [P-0371, (R)-1-(5-chloro-6-oxo-1,6-dihydropyridazin-4-yl)pyrrolidin-3-yl (1-(isoxazole-5-carbonyl)piperidin-4-yl)carbamate], the IC50 (in experiment [1]; on human CD73) was 0.001 to 10 µM throughout.

Regarding `CC(C)C(=O)N1CCC(NC(=O)O[C@@H]2CCN(c3cn[nH]c(=O)c3Cl)C2)CC1` [P-0372, (R)-1-(5-chloro-6-oxo-1,6-dihydropyridazin-4-yl)pyrrolidin-3-yl (1-isobutyrylpiperidin-4-yl)carbamate], the IC50 (in experiment [1]; on human CD73) was 0.001 to 10 µM each time.

As for `CC(C)(C)C(=O)N1CCC(NC(=O)O[C@@H]2CCN(c3cn[nH]c(=O)c3Cl)C2)CC1` [P-0373, (R)-1-(5-chloro-6-oxo-1,6-dihydropyridazin-4-yl)pyrrolidin-3-yl (1-pivaloylpiperidin-4-yl)carbamate], the 50% inhibitory concentration (IC50) (in experiment [1]; at human CD73) was 0.001 to 10 µM throughout.

In the case of `O=C(NC1CCN(C(=O)Cc2ccccc2)CC1)O[C@@H]1CCN(c2cn[nH]c(=O)c2Cl)C1` [P-0374, (R)-1-(5-chloro-6-oxo-1,6-dihydropyridazin-4-yl)pyrrolidin-3-yl (1-(2-phenylacetyl)piperidin-4-yl)carbamate], the IC50 (in experiment [1]; on human CD73) was 0.001 to 10 µM each time.

Consider `CC(C)CC(=O)N1CCC(NC(=O)O[C@@H]2CCN(c3cn[nH]c(=O)c3Cl)C2)CC1` [P-0375, (R)-1-(5-chloro-6-oxo-1,6-dihydropyridazin-4-yl)pyrrolidin-3-yl (1-(3-methylbutanoyl)piperidin-4-yl)carbamate], for which the concentration for half-maximal inhibition (IC50) (in experiment [1]; on human CD73) was 0.001 to 10 µM each time.

On to `CCC(=O)N1CCC(NC(=O)O[C@@H]2CCN(c3cn[nH]c(=O)c3Cl)C2)CC1` [P-0376, (R)-1-(5-chloro-6-oxo-1,6-dihydropyridazin-4-yl)pyrrolidin-3-yl (1-propionylpiperidin-4-yl)carbamate], for which the IC50 (in experiment [1]; on human CD73) was 0.001 to 10 µM throughout.

As to `O=C(NC1CCN(C(=O)C2CCCC2)CC1)O[C@@H]1CCN(c2cn[nH]c(=O)c2Cl)C1` [P-0377, (R)-1-(5-chloro-6-oxo-1,6-dihydropyridazin-4-yl)pyrrolidin-3-yl (1-(cyclopentanecarbonyl)piperidin-4-yl)carbamate], the IC50 (in experiment [1]; at human CD73) was 0.001 to 10 µM throughout.

On to `CCc1c(N2CC[C@@H](OC(=O)NC3CCC(F)(F)CC3)C2)cn[nH]c1=O` [P-0378, (R)-1-(5-ethyl-6-oxo-1,6-dihydropyridazin-4-yl)pyrrolidin-3-yl (4,4-difluorocyclohexyl)carbamate], for which the IC50 in experiment [1] lay within 0.001 to 10 µM; on human CD73, 10 to 100 µM.

Take `N#C[C@H]1CCC[C@H]1NC(=O)O[C@@H]1CCN(c2cn[nH]c(=O)c2Cl)C1` [P-0379, (R)-1-(5-chloro-6-oxo-1,6-dihydropyridazin-4-yl)pyrrolidin-3-yl ((1R,2S)-2-cyanocyclopentyl)carbamate]: the half-maximal inhibitory concentration (IC50) (in experiment [1]; at human CD73) was 0.001 to 10 µM each time.

Regarding `N#C[C@@H]1CCC[C@H]1NC(=O)O[C@@H]1CCN(c2cn[nH]c(=O)c2Cl)C1` [P-0380, (R)-1-(5-chloro-6-oxo-1,6-dihydropyridazin-4-yl)pyrrolidin-3-yl ((1R,2R)-2-cyanocyclopentyl)carbamate], the half-inhibitory concentration (IC50) (in experiment [1]; at human CD73) was 0.001 to 10 µM in each case.

As for `CC1CCCC1NC(=O)O[C@@H]1CCN(c2cn[nH]c(=O)c2Cl)C1` (stereo partly drawn) [P-0381, (R)-1-(5-chloro-6-oxo-1,6-dihydropyridazin-4-yl)pyrrolidin-3-yl (2-methylcyclopentyl)carbamate], the 50% inhibitory concentration (IC50) (in experiment [1]; on human CD73) was 0.001 to 10 µM each time.

Take `COC(=O)C12CCC(NC(=O)O[C@@H]3CCN(c4cn[nH]c(=O)c4Cl)C3)(CC1)C2` [P-0382, methyl (R)-4-((((1-(5-chloro-6-oxo-1,6-dihydropyridazin-4-yl)pyrrolidin-3-yl)oxy)carbonyl)amino)bicyclo[2.2.1]heptane-1-carboxylate]: the IC50 (in experiment [1]; at human CD73) was 0.001 to 10 µM in each case.

As to `O=C(N[C@H]1CCC[C@H]1C(F)(F)F)O[C@@H]1CCN(c2cn[nH]c(=O)c2Cl)C1` [P-0383, (R)-1-(5-chloro-6-oxo-1,6-dihydropyridazin-4-yl)pyrrolidin-3-yl ((1S,2R)-2-(trifluoromethyl)cyclopentyl) carbamate], the IC50 (in experiment [1]; at human CD73) was 0.001 to 10 µM in each case.
